Measurements published in patent US11819489B2 (priority 2017, dated 2023).
Several values for one entry are separate records, joined by “and”; a condition that tells them apart may be missing. Identical values can stand only once. Entries after “also recorded” stand apart in the source; their conditions may differ.

Columns and labels:
A549 cells = conditions: 24-h treatment
hPBMC = assay: Cellular As uptake, hPBMC; type: cell-based, human; conditions: 24-h treatment, 1.5 μM As
Method: (§1) FIG. 24 is a graphical summary of the cellular As concentrations associated with the specified cell lines following 24-h treatment (1.5 μM As). The results are represented as the mean and standard deviation of triplicate samples.
(§2) FIG. 24 summarises the cellular As concentrations associated with the different cell types following 24-h treatment with the various As compounds (1.5 μM As). The leukemia cell lines, K562, HL-60, Kasumi-1 and KARPAS 45, are depicted in red (lighter of the filled in blocks), and the non-leukemia cell types are depicted in black (darkest shading), with the cancerous adherent cells, HepG2, in the diagonal stripes, and the normal cells, hPBMC, in solid black.

HL-60 cells [1] = tested on: HL-60 cells
K562 cells [2] = assay: Fate of PhAs(LHP) in K562 cells (micrographs, microprobe SR-XRF, XANES); type: cell-based, human; conditions: K562, 10 μM
Method: (§3) The cell lines, K562 and HL-60, were obtained and maintained as previously described. Glutaraldehyde (25% solution), Spurr's low viscosity embedding resin, 3-mm gold Finder grids, and toluidine blue were sourced from Proscitech (Kirwan, Australia). Thin-sectioned cells were prepared for microprobe SRXRF analysis using procedures documented previously. Briefly the cells were treated in cell culture flasks (75 cm^2) with either IMDM (for the control cells, 4 h or 24 h) or PhAs(LHP) (10 μM in IMDM, 4 h or 24 h). The cells were washed with PBS (2 times) using centriguation and the final cell pellet was fixed in gluteraldehyde (1 mL, 2% v/v in PBS) for 2 h at room temperature; and dehydrated in ethanol (30%×2, 50%×2, 70%×2, 80%×2, 90%×2, 95%×2, 100%×4). Infiltration was achieved by rocking the cells in 50% ethanol/50% Spurr's resin overnight and then replacing with 100% Spurr's resin (×2 over 2 days) to ensure the removal of all traces of water. On the final day, the cells were embedded in 100% Spurr's resin, centrifuged (8000 g, 1 h) and cured at 60° C. overnight in a Beem capsule. Thin sections (1 μm) of the cell pellet were cut using an ultramicrotome (Leica EM UC7). The thin-sections were stained with toluidine blue before mounting on silicon nitride membranes.
The gold Finder grids were attached to kinematic mounts designed to fit both the light microscope (Leica DMXRE Epi-fluorescence/visual microscope) and the X-ray microprobe (2-ID-D). […]
Microprobe SR-XRF was performed at beamline 2-ID-D at the Advanced Photon Source, Argonne National Laboratory (Lemont, Ill., USA). […] Fluorescent X-rays were detected using a dwell time of 2.5 s/pt and an energy dispersive Vortex EM (Hitachi High-Technologies Science America, Northridge, Calif.) silicon drift detector. […] Conversion of elemental fluorescence intensities to absolute densities in microgram per square centimetre (μg/cm^2) was performed by comparing X-ray fluorescence intensities with those from thin film standards, NBS-1832 and NBS-1833 (NIST, Gaithersburg, Md., USA).

Kasumi-1 cells [3] = assay: Cellular As uptake, Kasumi-1 cells; type: cell-based, human; conditions: 1.5 μM As
Method: as §1, §2

Kasumi-1 cells [4] = tested on: Kasumi-1 cells
HepG2 cells [5] = type: cell-based, human
[6] = Stability of As-LHP complexes in Milli-Q water by XAS; type: physicochemical; conditions: 37° C., 0 h vs 14 h
Method: The stability of As-LHP complexes was studied by XAS. Samples were prepared by dissolving HyAs(LHP), MeAs(LHP) or PhAs(LHP) (1.5 mM) in Milli-Q water which was maintained at 37° C. Immediately prior to analysis the arsenic-peptide solution (600 μL) was mixed with ethylene glycol (300 μL) to prevent crystallisation during rapid freezing. The resultant solution (1 mM final As concentration) was transferred by syringe to the sample holder which was sealed with Kapton tape. The sample was then rapidly submerged in liquid nitrogen and transferred to the liquid helium cryostat where it was analysed at 10° K.
Arsenic K-edge XAS data were collected at the Australian National Beamline Facility (ANBF, beamline 20B) KEK, Tsukuba, Japan with a beam energy of 2.5 GeV, and beam current of 300-400 mA. A Si[111] channel-cut monochromator was detuned by 50% to reject harmonics. All spectra were recorded in fluorescence mode at ˜10° K (maintained with a closed-cycle He Cryolndustries REF-1577-D22 cryostat) using a 36-element Ge-array detector (Eurisys/Canberra Industries) and a 1-mm vertical slit width. XAS spectra were obtained at the zero time point and then at a later time point, 4 h or 14 h. The spectra from the two time points were processed and analysed using EXAFS PAK.

[7] = tested on: human peripheral blood mononuclear cells (hPBMC)
HepG2 cells [8] = tested on: HepG2 cells
HL-60 cells [9] = assay: Fate of PhAs(LHP) in HL-60 cells (micrographs, microprobe SR-XRF, XANES); type: cell-based, human; conditions: HL-60, 10 μM
Method: as §3
The gold Finder grids were attached to kinematic mounts designed to fit both the light microscope (Leica DMXRE Epi-fluorescence/visual microscope) and the X-ray microprobe (2-ID-D). Optical micrographs and XY coordinates were obtained in order to locate suitable cells for analysis.
Microprobe SR-XRF was performed at beamline 2-ID-D at the Advanced Photon Source, Argonne National Laboratory (Lemont, Ill., USA). The 11.9-keV X-ray beam was focused to a spot size of 0.3×0.3 μm^2 using two zone plates. The samples were housed in a helium atmosphere and the distributions of the elements from P (2.1 keV) to As (11.9 keV) were mapped by raster scanning the sample in 0.3 μm steps, with the aid of a XYZ motorised stage. Fluorescent X-rays were detected using a dwell time of 2.5 s/pt and an energy dispersive Vortex EM (Hitachi High-Technologies Science America, Northridge, Calif.) silicon drift detector. Elemental distribution maps were processed using MAPS Version 1.7.3.02 software package (S. Vogt, Advanced Photon Source). Conversion of elemental fluorescence intensities to absolute densities in microgram per square centimetre (μg/cm^2) was performed by comparing X-ray fluorescence intensities with those from thin film standards, NBS-1832 and NBS-1833 (NIST, Gaithersburg, Md., USA).

[10] = tested on: Chinese hamster (CH) solid tumour cells
[11] = Stability of As-LHP complexes in cell medium (IMDM) by XAS; type: physicochemical; conditions: 37° C., 0 h vs 24 h
Method: The stability of the two most promising As-LHP complexes was also studied in cell medium (IMDM). Samples were prepared by dissolving MeAs(LHP) or PhAs(LHP) (1.5 mM) in IMDM which was maintained at 37° C. The same protocol was followed as that for the Milli-Q water stability studies. XAS spectra were obtained at the zero time point and then at 24 h. As with the Milli-Q water samples, the spectra from the two time points were processed, fitted and quantified using EXAFSPAK.

KARPAS 45 cells [12] = tested on: KARPAS 45 cells
K562 cells [13] = tested on: K562 cells
KARPAS 45 cells [14] = assay: Cellular As uptake, KARPAS 45 cells; type: cell-based, human; conditions: KARPAS 45, 24-h treatment, 1.5 μM As
Method: as §1, §2

K562 cells [15] = assay: Cellular As uptake, K562 cells; type: cell-based, human; conditions: K562, 24-h treatment, 1.5 μM As
Method: as §1, §2

HL-60 cells [16] = assay: Cellular As uptake, HL-60 cells; type: cell-based, human; conditions: HL-60, 24-h treatment, 1.5 μM As
Method: as §1, §2

CC(=O)N[C@H]1CS[As](c2ccccc2)SC[C@@H](C(=O)O)NC(=O)[C@H](CCCNC(=N)N)NC(=O)[C@H](CCCNC(=N)N)NC(=O)[C@H](CC(C)C)NC(=O)[C@H](CCCNC(=N)N)NC(=O)[C@H](Cc2c[nH]cn2)NC(=O)[C@H](Cc2ccc(O)cc2)NC(=O)[C@H](C)NC1=O (some centres unmarked) [PhAs(LHP)]
selectivity: IC50 in A549 cells, times greater than in K562 and HL-60 cells (A549 cells): 470 times | IC50 (A549 cells; A549 cells, MTT): 234 ± 5 µM | cellular As concentration (hPBMC): no detectable cellular As concentrations | IC50 (HL-60 cells [1]): 0.5 ± 0.1 µM | relative toxicity / IC50 versus another compound, in words (comparator in the value) (HL-60 cells [1]): three times greater toxicity toward HL-60 cells than the PAO starting material | cell morphology (toluidine-blue micrograph) (K562 cells [2]; 4 h): clear evidence of cell stress with fragmentation of the nucleus | intracellular As distribution (microprobe SR-XRF) (K562 cells [2]; 4 h and 24 h): significant As throughout the cell with evidence of accumulation in the cell nucleus | cell morphology (toluidine-blue micrograph) (K562 cells [2]; 24 h): breakdown of the cell membrane and fragmented/dispersed nuclear material | cellular As concentration in Kasumi-1 cells, times greater than in HL-60 cells (Kasumi-1 cells [3]; 24-h treatment): 1.4 times | cellular As concentration in Kasumi-1 cells, times higher than in K562 cells (Kasumi-1 cells [3]; 24-h treatment): 1.2 times | cellular As concentration in Kasumi-1 cells, times higher than in KARPAS 45 cells (Kasumi-1 cells [3]; 24-h treatment): 4.0 times | IC50 (Kasumi-1 cells [4]): 1.4 ± 0.1 µM | relative toxicity / IC50 versus another compound, in words (comparator in the value) (Kasumi-1 cells [4]): approximately forty times more toxic than ATO | times more toxic than PAO (Kasumi-1 cells [4]): 3.6 times | times more toxic than PhAs(sLHP) (Kasumi-1 cells [4]): about 460 times | cellular As concentration (HepG2 cells [5]): no detectable cellular As concentrations | agreement between As K-edge XANES spectra at the two time points [6]: ~100% | stability in Milli-Q water ([6]; XANES): stable in Milli-Q water for 14 h; also recorded: excellent stability | IC50 [7]: 495 ± 6 µM | selectivity: IC50 in hPBMC, times greater than in K562 and HL-60 cells [7]: approximately 1000 times | selectivity: IC50 in hPBMC, times greater than in KARPAS 45 cells [7]: approximately 64 times | IC50 (HepG2 cells [8]): 978 ± 11 µM | selectivity: IC50 in HepG2 cells, times greater than in K562 and HL-60 cells (HepG2 cells [8]): ~2000 times | cell morphology (toluidine-blue micrograph) (HL-60 cells [9]; 4 h): cell distress is evident | intracellular As distribution (microprobe SR-XRF) (HL-60 cells [9]; 4 h): only small localisations of As | cell morphology (toluidine-blue micrograph) (HL-60 cells [9]; 24 h): high degree of cell degredation with evidence of cell demise | intracellular As distribution (microprobe SR-XRF) (HL-60 cells [9]; 24 h): the nucleus clearly contains a greater accumulation of As than the rest of the cell | IC50 [10]: 770 ± 12 µM | selectivity: IC50 in CH solid tumour cells, times greater than in K562 and HL-60 cells [10]: approximately 1500 times | agreement between As K-edge XANES spectra at the two time points [11]: 97% | stability in IMDM ([11]; XANES): reasonably stable in IMDM for 24 h; also recorded: good stability

CC(=O)N[C@H]1CS[As](c2ccccc2)SC[C@@H](C(=O)O)NC(=O)[C@H](CCCNC(=N)N)NC(=O)[C@H](CC(C)C)NC(=O)[C@H](Cc2ccc(O)cc2)NC(=O)[C@H](CCCNC(=N)N)NC(=O)[C@H](Cc2c[nH]cn2)NC(=O)[C@H](CCCNC(=N)N)NC(=O)[C@H](C)NC1=O (some centres unmarked) [PhAs(sLHP)]
times less toxic than PhAs(LHP) (KARPAS 45 cells [12]): 32 times | cellular As concentration (hPBMC): no detectable As uptake | IC50 (HL-60 cells [1]): 205 ± 4 µM | cellular As concentration (Kasumi-1 cells [3]; Kasumi-1, 24-h treatment): no detectable As uptake | IC50 (K562 cells [13]): 790 ± 30 µM | times less toxic than PhAs(LHP) (K562 cells [13]): 1600 times | cellular As concentration (HepG2 cells [5]): no detectable As uptake | IC50 [7]: 665 ± 8 µM | cellular As concentration (KARPAS 45 cells [14]): no detectable As uptake | IC50 (HepG2 cells [8]): 960 ± 10 µM | cellular As concentration (K562 cells [15]): no detectable As uptake | cellular As concentration (HL-60 cells [16]): no detectable As uptake

arsenic trioxide [ATO]
IC50 (KARPAS 45 cells [12]): 15.1 µM and 15 µM | IC50 as percentage of the value for arsenite (KARPAS 45 cells [12]): 23% | IC50 (HL-60 cells [1]): 7 ± 0.1 µM | relative toxicity / IC50 versus another compound, in words (comparator in the value) (HL-60 cells [1]): a little less than half that obtained for arsenite | cellular As concentration in Kasumi-1 cells, times greater than in HepG2 cells (Kasumi-1 cells [3]; 24-h treatment): 5.5 times | IC50 (Kasumi-1 cells [4]): 61 ± 1 µM | IC50 (K562 cells [13]): 9.7 ± 0.2 µM | relative toxicity / IC50 versus another compound, in words (comparator in the value) (K562 cells [13]): approximately half that of arsenite | IC50 [7]: 81.7 µM and 82 µM | relative toxicity / IC50 versus another compound, in words (comparator in the value) [7]: approximately twice that obtained for arsenite | IC50 (HepG2 cells [8]): 52 ± 3 µM | times more toxic than arsenite (HepG2 cells [8]): 1.7 times | IC50 [10]: 23.3 ± 0.9 µM
